Results reported in the supplement of paper PMC13380429.

What was measured:
Conditions in all cases: 72 h
HepG2 [1] = test: cell viability relative to DMSO; higher = less toxic
U2OS [2] = test: as above
Calu-3 [3] = test: as above
Vero E6 [4] = test: as above
Caco-2 [5] = test: as above
HepG2 [6] = test: drug sensitivity score (DSS) for viability; higher = more toxic; extreme values may be limits of the assay
U2OS [7] = test: as above
Calu-3 [8] = test: as above
Vero E6 [9] = test: as above
Caco-2 [10] = test: as above
HepG2 [11] = test: relative viability EC50 (midpoint between 100% and the lowest measured viability); higher = less toxic
U2OS [12] = test: as above
Calu-3 [13] = test: as above
Vero E6 [14] = test: as above
Caco-2 [15] = test: as above

SMILES	cell viability (HepG2 [1]; 1 nM) [%]	cell viability (HepG2 [1]; 10 nM) [%]	cell viability (HepG2 [1]; 100 nM) [%]	cell viability (HepG2 [1]; 1000 nM) [%]	cell viability (HepG2 [1]; 10000 nM) [%]	cell viability (U2OS [2]; 1 nM) [%]	cell viability (U2OS [2]; 10 nM) [%]	cell viability (U2OS [2]; 100 nM) [%]	cell viability (U2OS [2]; 1000 nM) [%]	cell viability (U2OS [2]; 10000 nM) [%]	cell viability (Calu-3 [3]; 1 nM) [%]	cell viability (Calu-3 [3]; 10 nM) [%]	cell viability (Calu-3 [3]; 100 nM) [%]	cell viability (Calu-3 [3]; 1000 nM) [%]	cell viability (Calu-3 [3]; 10000 nM) [%]	cell viability (Vero E6 [4]; 1 nM) [%]	cell viability (Vero E6 [4]; 10 nM) [%]	cell viability (Vero E6 [4]; 100 nM) [%]	cell viability (Vero E6 [4]; 1000 nM) [%]	cell viability (Vero E6 [4]; 10000 nM) [%]	cell viability (Caco-2 [5]; 1 nM) [%]	cell viability (Caco-2 [5]; 10 nM) [%]	cell viability (Caco-2 [5]; 100 nM) [%]	cell viability (Caco-2 [5]; 1000 nM) [%]	cell viability (Caco-2 [5]; 10000 nM) [%]	drug sensitivity score (HepG2 [6])	drug sensitivity score (U2OS [7])	drug sensitivity score (Calu-3 [8])	drug sensitivity score (Vero E6 [9])	drug sensitivity score (Caco-2 [10])	relative viability EC50 (HepG2 [11]) [µM]	relative viability EC50 (U2OS [12]) [µM]	relative viability EC50 (Calu-3 [13]) [µM]	relative viability EC50 (Vero E6 [14]) [µM]	relative viability EC50 (Caco-2 [15]) [µM]
O=C(O)CCCCCCNC1c2ccccc2CCc2ccccc21 [amineptine]	109	102	93	98.8	105	98.8	101	97.9	99	98.9	101	95.3	111	96.2	102	104	107	99	100	97.2	90.6	99.7	99	103	110	0	0	0	0	0	> 10	> 10	> 10	> 10	> 10
CCCN(C/C=C/I)[C@H]1CCc2ccc(O)cc2C1 [7-hydroxy-PIPAT]	102	104	97.8	101	98.4	98	96.7	101	103	98.3	111	97.3	90.5	102	105	102	104	103	103	96	99.8	110	104	108	101	0	0	0	0	0	> 10	> 10	> 10	> 10	> 10
O=C(CCc1ccncc1)NNC(=O)N1Cc2ccccc2Oc2ccc(Cl)cc21	117	106	111	99.9	107	96.4	103	96.8	102	100	103	96.4	97.3	87.8	95.4	100	98.4	101	94.9	109	88.1	99.1	92.7	95.6	98.4	0	0	0	0	0	> 10	> 10	> 10	> 10	> 10
O=S(=O)(NCCCCCCc1ccccc1)c1cccc2c(Cl)cccc12 [SC-9]	105	96.6	103	108	119	94.6	97.9	92.7	97.4	99.5	102	108	102	96.8	101	99	101	96.8	102	107	91.8	89	87.2	101	94.5	0	0	0	0	0	> 10	> 10	> 10	> 10	> 10
CC(=O)Nc1cccc2c1c(Sc1ccc(Cl)cc1)c(C)n2CC(=O)O [AZD1981]	100	103	105	99.8	97.9	94.6	102	94.3	101	97.6	102	96	89.7	94.3	96.2	98.6	98.1	97.4	97.4	94.4	102	105	91.6	102	103	0	0	0	0	0	> 10	> 10	> 10	> 10	> 10
C[C@@H]1O[C@@H](O[C@@H]2[C@@H](O)[C@H](OCCc3ccc(O)c(O)c3)O[C@H](CO)[C@H]2OC(=O)/C=C/c2ccc(O)c(O)c2)[C@H](O)[C@H](O)[C@H]1O [verbascoside]	95.3	102	101	106	104	97.9	100	96.5	96.8	93.6	98.6	93.3	106	105	97.1	98.9	99.8	94.4	101	104	96.4	89.7	97.8	99.8	96.9	0	0	0	0	0	> 10	> 10	> 10	> 10	> 10
CCCN(CC1CC1)c1nc(C)nc(Nc2c(Cl)cc(Cl)cc2Cl)c1Cl	95.4	94	106	103	97.2	100	97.3	103	101	99.3	85.1	95.1	93.8	96.8	95.5	98.3	96.7	94.9	96.8	106	93.5	97.8	90	96.2	89.8	0	0	0	0	0	> 10	> 10	> 10	> 10	> 10
CC(C)COC(=O)c1ccc(N)cc1 [isobutamben]	98.7	103	94.9	88	90.2	104	96.4	102	94.1	99.9	87.8	100	103	111	102	102	106	97.9	98.6	96.2	100	95.9	102	93.1	98.8	0.7	0	0	0	0	> 10	> 10	> 10	> 10	> 10
CCCCCCOc1nsnc1C1=CCCN(C)C1 [xanomeline]	102	102	100	99.3	79.3	95.3	102	97.5	98.9	92.3	101	115	100	104	96.6	105	104	106	101	95.9	109	93.8	99.1	92.3	99.1	0.7	0	0	0	0	> 10	> 10	> 10	> 10	> 10
CCCC[C@]1(CC)CS(=O)(=O)c2cc(CNC(CC(=O)O)CC(=O)O)c(OC)cc2[C@@H](c2ccccc2)N1	105	112	108	97.7	112	96.7	101	96.8	104	104	96.3	101	98	89.5	100	95.7	94.1	96.5	91.1	104	90	97.8	99.7	96.5	105	0	0	0	0	0	> 10	> 10	> 10	> 10	> 10
O=C(Nc1ccc(Oc2ccc(Cl)cn2)c(Cl)c1)c1ccccn1	104	108	109	93.7	99.1	102	105	99.6	104	96.2	103	108	95.1	98.6	97.7	101	101	102	96	95.8	98.1	97.8	104	104	93.1	0	0	0	0	0	> 10	> 10	> 10	> 10	> 10
